Measured values: patent publication US20120004228A1, “Bis Aromatic Compounds for Use as LTC4 Synthase Inhibitors” (BIOLIPOX AB, priority 2009, published 2012)

Each compound was assayed against T1, Recombinant human LTC4 synthase (Homo sapiens, UniProt Q16873) (assay: In vitro LTC4 synthase assay (LTA4 to LTC4, HTRF detection)). Settings: not given.
T1 construct: made in house; host or cells: Pichia pastoris ('Piccia pastoralis' [sic])
T1 sequence (Q16873 1-150): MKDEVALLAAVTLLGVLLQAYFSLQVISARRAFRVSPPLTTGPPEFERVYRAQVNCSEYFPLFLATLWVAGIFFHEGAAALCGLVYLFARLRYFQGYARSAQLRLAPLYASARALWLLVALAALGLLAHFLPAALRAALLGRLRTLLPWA
Assay type: biochemical
Experimental: In the assay, LTC4 synthase catalyses the reaction where the substrate LTA4 is converted to LTC4. Recombinant human LTC4 synthase is expressed in Piccia pastoralis and the purified enzyme is dissolved in 25 mM tris-buffer pH 7.8 supplemented with 0.1 mM glutathione (GSH) and stored at −80° C. The assay is performed in phosphate buffered saline (PBS) pH 7.4 and 5 mM GSH in 384-well plates.
The following is added chronologically to each well:
1. 48 μL LTC4 synthase in PBS with 5 mM GSH. The total protein concentration in this solution is 0.5 μg/mL. 2. 1 μL inhibitor in DMSO (final concentration 10 μM). 3. Incubation of the plate at room temperature for 10 min. 4. 1 μL LTA4 (final concentration 2.5 μM). 5. Incubation of the plate at room temperature for 5 min. 6. 10 μL of the incubation mixture is analysed using homogenous time resolved fluorescent (HTRF) detection.

SMILES | IC50 [nM]
COCC(=O)N(c1ccccc1)c1cc(C(=O)O)cc(C(=O)c2ccc(N(C)c3ccc(Cl)cc3)cn2)c1 [9:26, 3-{5-[(4-Chlorophenyl)(methyl)amino]picolinoyl}-5-(2-methoxy-N-phenylacet-amido)benzoic acid] | 466
CN(c1ccc(Cl)cc1)c1ccc(C(=O)c2cc(Oc3cccc(F)c3)cc(C(=O)O)c2)cc1 [8:13, 3-{4-[(4-Chlorophenyl)(methyl)amino]benzoyl}-5-(3-fluorophenoxy)benzoic acid] | 59
COc1ccccc1N(C)c1cc(C(=O)O)cc(C(=O)c2ccc(N(C)c3ccc(Cl)cc3)cn2)c1 [9:22, 3-{5-[(4-Chlorophenyl)(methyl)amino]picolinoyl}-5-[(2-methoxyphenyl)(methyl)-amino]benzoic acid] | 366
CN(c1ccc(Cl)cc1)c1ccc(C(=O)c2cc(C(=O)O)cc(N(C(=O)CO)c3ccccc3)c2)nc1 [9:38, 3-{5-[(4-Chlorophenyl)(methyl)amino]picolinoyl}-5-(2-hydroxy-N-phenylacet-amido)benzoic acid] | 470
Cc1ccc(Oc2cc(C(=O)O)cc(C(=O)c3ccc(N(C)c4ccc(Cl)cc4)cn3)c2)cc1 [8:6, 3-{5-[(4-Chlorophenyl)(methyl)amino]picolinoyl}-5-(p-tolyloxy)benzoic acid] | 120
CN(c1ccc(Cl)cc1)c1ccc(C(=O)c2cc(NC3CCSCC3)cc(C(=O)O)c2)cc1 [10:21] | 143
CN(c1ccc(Cl)cc1)c1ccc(C(=O)c2cc(C(=O)O)cc(N(CCCC(F)(F)F)c3ccccc3)c2)cc1 [10:37, 3-{4-[(4-Chlorophenyl)(methyl)amino]benzoyl}-5-[phenyl(4,4,4-trifluorobutyl)-amino]benzoic acid] | 252
CN(c1ccc(Cl)cc1)c1ccc(C(=O)c2ccc(NS(=O)(=O)c3ccc(OC(F)(F)F)cc3)cc2)c(C(=O)O)c1 [Example 5, 5-[(4-Chlorophenyl)(methyl)amino]-2-[4-(4-trifluoromethoxybenzenesulfonamido)-benzoyl]benzoic acid] | 549
O=C(O)c1cc(Nc2ccc(Cl)cc2)cc(C(=O)c2ccc(Nc3ccc(Cl)cc3)cc2)c1 [Example 3, 3-(4-Chorophenylamino)-5-[4-(4-chlorophenylamino)benzoyl]benzoic acid] | 146
CC(=O)N(c1cc(C(=O)O)cc(C(=O)c2ccc(N(C)c3ccc(Cl)cc3)cn2)c1)C1CCOCC1 [9:44, 3-{5-[(4-Chlorophenyl)(methyl)amino]picolinoyl}-5-[N-(4-tetrahydropyranyl)-acetamido]benzoic acid] | 2550
Cc1ccccc1CNc1cc(C(=O)O)cc(C(=O)c2ccc(N(C)c3ccc(Cl)cc3)cc2)c1 [10:16, 3-{4-[(4-Chlorophenyl)(methyl)amino]benzoyl}-5-(2-methylbenzylamino)-benzoic acid] | 284
COc1cccc(Oc2cc(C(=O)O)cc(C(=O)c3ccc(N(C)c4ccc(Cl)cc4)cn3)c2)c1 [8:3, 3-{5-[(4-Chlorophenyl)(methyl)amino]picolinoyl}-5-(3-methoxyphenoxy)benzoic acid] | 188
CN(Cc1cccc(Cl)c1)c1cc(C(=O)O)cc(C(=O)c2ccc(N(C)c3ccc(Cl)cc3)cn2)c1 [9:10, 3-[(3-Chlorobenzyl)(methyl)amino]-5-{5-[(4-chlorophenyl)(methyl)amino]-picolinoyl}benzoic acid] | 75
CN(c1ccc(Cl)cc1)c1ccc(C(=O)c2cc(C(=O)O)cc(N(CC3CCCO3)c3ccccc3)c2)nc1 (stereo not shown) [9:41, 3-{5-[(4-Chlorophenyl)(methyl)amino]picolinoyl}-5-{phenyl[(2-tetrahydrofuryl)-methyl]amino}benzoic acid] | 164
CN(c1ccc(Cl)cc1)c1ccc(C(=O)c2cc(C(=O)O)cc(C(=O)Nc3ccccc3OC(F)F)c2)cc1 [2:13, 3-{4-[(4-Chlorophenyl)(methyl)amino]benzoyl}-5-[2-(difluoromethoxy)phenyl-carbamoyl]benzoic acid] | 706
COc1cccc(C(=O)Nc2cc(C(=O)O)cc(C(=O)c3ccc(N(C)c4ccc(Cl)cc4)cn3)c2)c1 [2:10, 3-{5-[(4-Chlorophenyl)(methyl)amino]picolinoyl}-5-(3-methoxybenzamido)-benzoic acid] | 412
COc1ccc(Nc2cc(C(=O)O)cc(C(=O)c3ccc(N(C)c4ccc(Cl)cc4)cc3)c2)cc1OC [10:7, 3-{4-[(4-Chlorophenyl)(methyl)amino]benzoyl}-5-(3,4-dimethoxyphenyl-amino)benzoic acid] | 483
CN(c1ccc(Cl)cc1)c1ccc(C(=O)c2cc(OCc3ccc4c(c3)OCO4)cc(C(=O)O)c2)nc1 [11:5, 3-{5-[(4-Chlorophenyl)(methyl)amino]picolinoyl}-5-(3,4-methylenedioxy-benzyloxy)benzoic acid] | 584
COc1ccc(N(CC2(C)COC2)c2cc(C(=O)O)cc(C(=O)c3ccc(N(C)c4ccc(Cl)cc4)cn3)c2)cc1 [9:25, 3-{5-[(4-Chlorophenyl)(methyl)amino]picolinoyl}-5-{(4-methoxyphenyl)-[(3-methyloxetan-3-yl)methyl]amino}benzoic acid] | 88
CN(c1ccc(Cl)cc1)c1ccc(C(=O)c2cc(Nc3ccccc3OC(F)F)cc(C(=O)O)c2)cc1 [10:12, 3-{4-[(4-Chlorophenyl)(methyl)amino]benzoyl}-5-(2-difluoromethoxyphenyl-amino)benzoic acid] | 110
CN(c1ccc(Cl)cc1)c1ccc(C(=NO)c2cc(Oc3ccccc3)cc(C(=O)O)c2)cc1 (mixture of isomers) [Example 17, 3-({4-[(4-Chlorophenyl)(methyl)amino]phenyl}(hydroxyimino)methyl)-5-phenoxy-benzoic acid] | 834

Continued by falling IC50, values first:

IC50 [nM] | SMILES
745 | CON=C(c1ccc(N(C)c2ccc(Cl)cc2)cc1)c1cc(Oc2ccccc2)cc(C(=O)O)c1 (mixture of isomers) [Example 18, 3-({4-[(4-Chlorophenyl)(methyl)amino]phenyl}(methoxyimino)methyl)-5-phenoxybenzoic acid]
625 | O=C(O)c1cc(Nc2ccc(Cl)cc2)ccc1C(=O)c1ccc(Nc2ccc(Cl)cc2)cc1 [Example 6:1, 5-(4-Chlorophenylamino)-2-[4-(4-chlorophenylamino)benzoyl]benzoic acid]
176 | CC(C)CN(c1ccccc1)c1cc(C(=O)O)cc(C(=O)c2ccc(N(C)c3ccc(Cl)cc3)cc2)c1 [10:35, 3-{4-[(4-Chlorophenyl)(methyl)amino]benzoyl}-5-[isobutyl(phenyl)amino]-benzoic acid]
133 | CN(c1ccc(Cl)cc1)c1ccc(C(=O)c2cc(C(=O)O)cc(N(CC3(C)COC3)c3ccccc3)c2)cc1 [10:27, 3-{4-[(4-Chlorophenyl)(methyl)amino]benzoyl}-5-{[(3-methyloxetan-3-yl)-methyl](phenyl)amino}benzoic acid]
122 | CN(c1ccc(Cl)cc1)c1ccc(C(=O)c2cc(C(=O)O)cc(N(CCC3OCCO3)c3ccccc3)c2)nc1 [9:46, 3-{[2-(1,3-Dioxolan-2-yl)ethyl](phenyl)amino}-5-{5-[(4-chlorophenyl)(methyl)-amino]picolinoyl}benzoic acid]
109 | CN(c1ccc(Cl)cc1)c1ccc(C(=O)c2cc(Oc3ccc4c(c3)OCO4)cc(C(=O)O)c2)cc1 [8:12, 5-{4-[(4-Chlorophenyl)(methyl)amino]benzoyl}-3-(3,4-methylenedioxyphenoxy)-benzoic acid]
102 | CCCCCCNC(=O)c1cc(C(=O)O)cc(C(=O)c2ccc(N(C)c3ccc(Cl)cc3)cn2)c1 [2:5, 3-{5-[(4-Chlorophenyl)(methyl)amino]picolinoyl}-5-(hexylcarbamoyl)benzoic acid]
80 | CN(c1ccc(Cl)cc1)c1ccc(C(=O)c2cc(Nc3ccccc3)cc(C(=O)O)c2)cc1 [10:8, 3-{4-[(4-Chlorophenyl)(methyl)amino]benzoyl}-5-phenylamino-benzoic acid]
76 | COCCN(c1cc(C(=O)O)cc(C(=O)c2ccc(N(C)c3ccc(Cl)cc3)cc2)c1)c1ccccc1F [10:25, 3-{4-[(4-Chlorophenyl)(methyl)amino]benzoyl}-5-[(2-fluorophenyl)(2-methoxy-ethyl)amino]benzoic acid]
76 | CN(c1ccc(Cl)cc1)c1ccc(C(=O)c2cc(Oc3ccc(Cl)cc3)cc(C(=O)O)c2)nc1 [8:5, 3-(4-Chlorophenoxy)-5-{5-[(4-chlorophenyl)(methyl)amino]picolinoyl}benzoic acid]
41 | CN(c1ccc(Cl)cc1)c1ccc(C(=O)c2cc(C(=O)O)cc(N(C)c3ccc(Cl)cc3)c2)cc1 [Example 10:1, 3-[(4-Chlorophenyl)(methyl)amino]-5-{4-[(4-chlorophenyl)(methyl)amino]benzoyl}-benzoic acid]
31 | CN(c1ccc(Cl)cc1)c1ccc(C(=O)c2cc(C(=O)O)cc(N(CC(C)(C)O)c3ccccc3)c2)nc1 [Example 9:27, 3-{5-[(4-Chlorophenyl)(methyl)amino]picolinoyl}-5-[(2-hydroxy-2-methylpropyl)-(phenyl)amino]benzoic acid]
25 | CN(c1ccc(Cl)cc1)c1ccc(C(=O)c2cc(C(=O)O)cc(N(CCCCO)c3ccccc3)c2)nc1 [9:45, 3-{5-[(4-Chlorophenyl)(methyl)amino]picolinoyl}-5-[(4-hydroxybutyl)(phenyl)-amino]benzoic acid]

Same assay, conditions: 5 min; total concentration of title compound in the assay 10 μM

SMILES | inhibition at 10 µM [%]
CN(c1ccc(Cl)cc1)c1ccc(C(=O)c2ccc(NS(=O)(=O)c3ccc(OC(F)(F)F)cc3)cc2)c(C(=O)O)c1 [Example 5, 5-[(4-Chlorophenyl)(methyl)amino]-2-[4-(4-trifluoromethoxybenzenesulfonamido)-benzoyl]benzoic acid] | 100
O=C(O)c1cc(Nc2ccc(Cl)cc2)cc(C(=O)c2ccc(Nc3ccc(Cl)cc3)cc2)c1 [Example 3, 3-(4-Chorophenylamino)-5-[4-(4-chlorophenylamino)benzoyl]benzoic acid] | 99
O=C(O)c1cc(Nc2ccc(Cl)cc2)ccc1C(=O)c1ccc(Nc2ccc(Cl)cc2)cc1 [Example 6:1, 5-(4-Chlorophenylamino)-2-[4-(4-chlorophenylamino)benzoyl]benzoic acid] | 96
